Test system: oligodendrocyte precursor cells (OPCs)
Experiment: OPC differentiation into mature oligodendric cells (MBP / PDGFRa immunostaining)
Format: cell-based, rat
Protocol: The OPCs were purified from P7 rat brain cortices. Rodent brain cortices were diced and dissociated with papain at 37° C. After trituration, […] were resuspended in a panning buffer and incubated at room temperature sequentially on the three immunopanning dishes: Ran-2 and GaIC were used for negative selection before positive selection with 04. OPCs were released from the panning dish using 0.05% Trypsin. OPCs were seeded onto PPL-coated coverslips at 200,000 per 25 mm circle coverslip in a chemically defined culture medium with PDGFa overnight.
Sodium Butyrate (NaB) was dissolved in sterile water and added into culture medium the next day to reach desire concentration. OPC coverslips were placed into 6-well dishes, 1 ml of NaB-containing culture medium without PDGFa was added to each well. Cells were cultured for 48 hours before fixation and immunostaining. PDGFRa antibody identifies OPCs and MBP (myelin basic protein) antibody labels differentiated oligodendrocytes. Percentage of MBP-positive cells out of all PDGFRa- and MBP-positives cells were quantified.
Examining a dose response for sodium butyrate on purified oligodendroglial cultures. Sodium butyrate was added to purified oligodendroglial cultures and cells were analyzed after 48 hours of treatment for effects on survival, proliferation and differentiation. Oligodendrocyte precursor cells were immunostained with PDGFRa shown in green, oligodendrocytes were immunostained with MBP in red, cell nuclei were labeled with DAPI in blue. Percentage of MBP-positive oligodendrocytes among all oligodendroglial cells was quantified at various concentrations of sodium butyrate. The asterisks represent significance based on Students t-test with the respective controls (*p<0.05, **p<0.01)

## CCCC(=O)[O-].[Na+] [sodium butyrate]
250 μM sodium butyrate, FIG. 7
  number of oligodendric cells from OPC compared to the control (MBP immunohistochemistry): statistically significant increase
250 μM sodium butyrate, purified OPCs from P7 rat brain cortices, 48 hours, FIG. 1
  fold increase in the numbers of differentiated and matured oligodendric cells as compared to the control: 2.6 fold
Dose response 50 nM to 250 μM, 48 hours, FIG. 1
  effect to promote OPC to differentiate into mature oligodendric cells: dose-dependent manner
Each of the concentrations of sodium butyrate (50 nM, 500 nM, 5 μM, 50 μM, 250 μM), 48 hours, Student's t-test, FIG. 1
  increase in Oligo cells as compared to the control: statistically significant increase

Reference: patent US20180161292A1, “NUTRITIONAL COMPOSITIONS CONTAINING BUTYRATE AND USES THEREOF” (Mead Johnson Nutrition Company, priority 2016, published 2018)
